# Test results: publication PMC12308784, “Organometallic Half-Sandwich Complexes of 1,10-Phenanthroline Derivatives with Improved Solubility, Albumin-Binding, and Nanoformulation Potential Targeting Drug Resistance in Cancer” (Inorganic Chemistry, 2025)
# Experiment: ternary complex formation with histidine model 1-methylimidazole by 1H NMR
# Conditions: PBS’ pH 7.4
# From the text: Our other aim was to investigate the binding kinetics of RuCymBP over a longer period of time, since MeIm has no such stability problems compared to HSA in a 2 week follow-up.
# Slow exchange of the aqua and chlorido complexes on the NMR time scale is not unique for RuCym complexes; formerly we have observed the same phenomenon with 2-picolinate and cyclometalated 4-phenylthiazole complexes. , The ternary complex formation with MeIm is rather slow; at a 1:1 ratio, the emergence of a new peak can be observed after 6 days, and only ca. 10% ternary complex forms after 14 days. By increasing the MeIm excess to 10-fold, the ternary complex becomes detectable after 8 h and about 2/3 of the metal complex transforms to the ternary species after 14 days. ^1H NMR studies on the RhCp*BP – MeIm system indicated a more rapid and almost quantitative interaction (Figure S21). […] The quantity of the ternary complex formed with MeIm agrees very well with previously reported data on RhCp*BPY–MeIm (67%), although the complex formation was reported to be slower for the latter. […]
# A Bruker AVANCE III HD Ascend 500 Plus instrument was used for NMR studies. For the characterization of the complexes both the ^1H and ^13C NMR spectra were recorded in CD3OD (10 mM, t = 25 °C). […]
# Figure S 19. Fluorescence emission spectra of HSA in the presence of RhCp*BP over 5 h { cRhCp*BP = […]
structure (smiles),measurement,setting,value
"Cc1ccc(C(C)C)cc1.[Cl-].[Cl-].[Ru+2].c1ccc(-c2ccnc3c2ccc2c(-c4ccccc4)ccnc23)cc1 [RuCymBP, [Ru(II)(η^6-p-cymene)(bathophenanthroline)Cl]Cl]",time until the ternary complex is detectable,10-fold MeIm excess,8 h
same,time until the ternary complex peak emerges,complex:MeIm 1:1,6 days
